This is an account of results in patent US8927579B2, “Male contraceptive” (priority 2007, dated 2015).

Structures can show the parent of a compound that is named as a salt.

Experiment [1] relates to longitudinal muscle of human vas deferens. Description: IC50 against contractions evoked by high K+ (120 mM) in the presence of FPL 64176, longitudinal muscle strips. To be noted: Homo sapiens; contractions evoked by K+ (120 mM) in the presence of FPL 64176 (1 μM); means ± S.E.M. The text has this: (§1) Human vas deferens specimens were obtained after elective vasectomies of healthy fertile men. College ethical approval and the consent of patients were obtained. The specimens were placed in ice-cold Krebs' medium, dissected-free of connective tissue/blood vessels and cut longitudinally into strips (longitudinal muscle preparations; 5-10 mm long & 1 mm wide) or transversely into rings (circular muscle preparations; 3 mm in length). The longitudinal and circular muscle preparations were then set up for tension recording (resting tension 5-7 mN) in a Perspex chamber superfused at 2 ml per min with Krebs' medium (36° C.) composed of (mM): NaCl, 118.8; NaHCO3, 25; KCl, 4.7; CaCl2.2H2O, 2.5; KH2PO4, 1.2; MgSO4.7H2O, 1.2; glucose, 11.1; ascorbic acid 0.1 and continuously gassed with 95% O2 and 5% CO2. Contractile responses were recorded via a Harvard-type force-displacement transducer. The analog signals were digitised using CIO-Das 16/Jr data acquisition software (Amplicon Liveline, Brighton, UK) and re-plotted on a microcomputer.
(§2) Tissues were equilibrated for 180 min in Krebs' medium containing inhibitors of extraneuronal and neuronal reuptake of noradrenaline, oestradiol (1 μM) and desipramine (0.1 μM) respectively, inhibitors of catechol-O-methyltransferase and monoamine oxidase, tropolone (10 μM) and iproniazid (10 μM) respectively and the β-adrenoceptor blocker, propranolol (1 μM). At the end of the equilibration period, the tissues were stimulated with noradrenaline (100 μM). […] After a contact time of 30-40 min in this medium, different experimental protocols (described below) were adopted in order to • (a) Elucidate the contractile actions of L-type Ca^2+ agonists such as FPL 64176 or Bay K 8644. In these experiments, tissues were exposed to FPL 64176 (0.1-10 μM added cumulatively) or in separate experiments Bay K 8644 (0.1-10 μM added cumulatively). • (b) Investigate the effects of various diphenylalkylamines and conventional L-type Ca^2+ antagonists (methoxyverapamil or nifedipine) on contractions evoked by high concentrations of extracellular potassium (high [K^+]o) in the presence of L-type Ca^2+ agonists, FPL 64176 (1 μM) or Bay K 8644 (1 μM). In this protocol, tissues were stimulated with high [K^+]O (10, 30 and 120 mM at 10-15 min intervals) in normal Krebs' medium, then exposed to L-type Ca^2+ agonists for 20-30 min and subsequently stimulated with high [K^+]O (10, 30 and 120 mM) in the presence of the drugs. These provided the initial responses. Following this and in the continuous presence of the L-type Ca^2+ agonists, the tissues were exposed additionally to L-type Ca^2+ antagonists (conventional or diphenylalkylamines) or drug-free vehicle medium. After contact times of 25-50 min the tissues were stimulated, first with high [K^+]O (either 30 mM or 120 mM) in order to take account of the well-documented use-dependent action of the diphenylalkylamine Ca^2+ antagonists. Following recovery from the test contraction and after a further 30-40 min, the tissues were then stimulated with high [K^+]o (10, 30 and 120 mM). This protocol is illustrated in FIGS. 3 and 4. The resulting contractions were measured (see below) and expressed as a percentage of corresponding initial responses to high [K^+]o evoked in the presence of L-type Ca^2+ agonists (i.e. before exposure to L-type Ca^2+ antagonists). […] Subsequent analysis (see below) was between contractions of drug-treated tissues and time-matched controls • (c) Determine the inhibitory potencies (IC50 values) of various diphenylalkylamines and phenothiazines and conventional L-type Ca^2+ antagonists (nifedipine and methoxyverapamil) against contractions evoked in longitudinal and circular muscle of human vas deferens by high [K^+]o (120 mM) in the presence of FPL 64176. In these experiments, tissues were stimulated with high [K^+]o (120 mM); sequentially in normal Krebs' medium and after 25-30 min exposure to the L-type Ca^2+ agonist, FPL 64176, (1 μM, Initial response). […]

Experiment [2] has as its system circular muscle of human vas deferens. Description: Inhibition of contractions evoked by high K+ in the presence of Bay K 8644, circular muscle. To be noted: [K+]o 30 mM & 120 mM in the presence of Bay K 8644 (1 μM). As to the method:
(§3) Human vas deferens specimens were obtained after elective vasectomies of healthy fertile men. College ethical approval and the consent of patients were obtained. The specimens were placed in ice-cold Krebs' medium, dissected-free of connective tissue/blood vessels and cut longitudinally into strips (longitudinal muscle preparations; 5-10 mm long & 1 mm wide) or transversely into rings (circular muscle preparations; 3 mm in length). […] Contractile responses were recorded via a Harvard-type force-displacement transducer. […]
(§4) Tissues were equilibrated for 180 min in Krebs' medium containing inhibitors of extraneuronal and neuronal reuptake of noradrenaline, oestradiol (1 μM) and desipramine (0.1 μM) respectively, inhibitors of catechol-O-methyltransferase and monoamine oxidase, tropolone (10 μM) and iproniazid (10 μM) respectively and the β-adrenoceptor blocker, propranolol (1 μM). […] The resulting contractions were measured (see below) and expressed as a percentage of corresponding initial responses to high [K^+]o evoked in the presence of L-type Ca^2+ agonists (i.e. before exposure to L-type Ca^2+ antagonists). […]

For experiment [3] the test system is unchanged. Description: IC50 against contractions evoked by high K+ (120 mM) in the presence of FPL 64176, circular muscle rings. As to conditions: Homo sapiens; contractions evoked by K+ (120 mM) in the presence of FPL 64176 (1 μM); means ± S.E.M.
Description: as §1, §2

For experiment [4], the system named is longitudinal muscle of human vas deferens. In words: Inhibition of contractions evoked by high K+ in the presence of Bay K 8644, longitudinal muscle. To be noted: [K+]o 30 mM & 120 mM in the presence of Bay K 8644 (1 μM). As for the experimental part:
as §3, §4

Experiment [5] deals with circular muscle of human vas deferens. Description: Inhibition at fixed concentration of contractions evoked by high K+ in the presence of FPL 64176, circular muscle. As to conditions: [K+]o 30 mM in the presence of FPL 64176 (1.0 μM); drug 10 μM; hydrochloride.
Description: as §1
Tissues were equilibrated for 180 min in Krebs' medium containing inhibitors of extraneuronal and neuronal reuptake of noradrenaline, oestradiol (1 μM) and desipramine (0.1 μM) respectively, inhibitors of catechol-O-methyltransferase and monoamine oxidase, tropolone (10 μM) and iproniazid (10 μM) respectively and the β-adrenoceptor blocker, propranolol (1 μM). At the end of the equilibration period, the tissues were stimulated with noradrenaline (100 μM). […] After a contact time of 30-40 min in this medium, different experimental protocols (described below) were adopted in order to • (a) Elucidate the contractile actions of L-type Ca^2+ agonists such as FPL 64176 or Bay K 8644. In these experiments, tissues were exposed to FPL 64176 (0.1-10 μM added cumulatively) or in separate experiments Bay K 8644 (0.1-10 μM added cumulatively). • (b) Investigate the effects of various diphenylalkylamines and conventional L-type Ca^2+ antagonists (methoxyverapamil or nifedipine) on contractions evoked by high concentrations of extracellular potassium (high [K^+]o) in the presence of L-type Ca^2+ agonists, FPL 64176 (1 μM) or Bay K 8644 (1 μM). In this protocol, tissues were stimulated with high [K^+]O (10, 30 and 120 mM at 10-15 min intervals) in normal Krebs' medium, then exposed to L-type Ca^2+ agonists for 20-30 min and subsequently stimulated with high [K^+]O (10, 30 and 120 mM) in the presence of the drugs. These provided the initial responses. Following this and in the continuous presence of the L-type Ca^2+ agonists, the tissues were exposed additionally to L-type Ca^2+ antagonists (conventional or diphenylalkylamines) or drug-free vehicle medium. After contact times of 25-50 min the tissues were stimulated, first with high [K^+]O (either 30 mM or 120 mM) in order to take account of the well-documented use-dependent action of the diphenylalkylamine Ca^2+ antagonists. Following recovery from the test contraction and after a further 30-40 min, the tissues were then stimulated with high [K^+]o (10, 30 and 120 mM). This protocol is illustrated in FIGS. 3 and 4. The resulting contractions were measured (see below) and expressed as a percentage of corresponding initial responses to high [K^+]o evoked in the presence of L-type Ca^2+ agonists (i.e. before exposure to L-type Ca^2+ antagonists). […]

The subject of experiment [6] is sperm emission in patients. As to conditions: clinical studies; cited from earlier work.

As to `CC(NCCC(c1ccccc1)c1ccccc1)c1ccccc1` (stereo not drawn) [Fendiline, fendiline hydrochloride], the IC50 in experiment [1] came to 3.8 ± 0.9 µM; in experiment [3] it was 17.4 ± 5.8 µM. Besides, the “inhibition of circular muscle contractions relative to time-matched controls” value in experiment [2] (drug 10 μM) was 0-20%. The “inhibition of longitudinal muscle contractions relative to time-matched controls” value in experiment [4] (drug 10 μM) is 73-80%. For the same compound, the “inhibition of circular muscle contractions compared to time-matched controls” value in experiment [5] turned out to be 35%.

With `COC(=O)C1=C(C)NC(C)=C(C(=O)OC)C1c1ccccc1[N+](=O)[O-]` [Nifedipine, nifedipine], the IC50 in experiment [1] amounted to 0.00216 ± 0.0008 µM; in experiment [3], 0.00219 ± 0.0005 µM. The inhibition at 1 µM is 66 to 73% in experiment [2] (Homo sapiens, drug 1 μM, read-out: inhibition of circular muscle contractions relative to time-matched controls) and 66 to 73% in experiment [4] (Homo sapiens, drug 1 μM, read-out: inhibition of longitudinal muscle contractions relative to time-matched controls).

For the compound `CN1CCN(CCCN2c3ccccc3Sc3ccc(C(F)(F)F)cc32)CC1` [Trifluoperazine, trifluoperazine dihydrochloride], the IC50 in experiment [1] was 20.7 ± 5.4 µM; in experiment [3], 10.2 ± 3 µM. The “effect on sperm emission (contraceptive side effect)” value in experiment [6] was “lack the contraceptive side-effect”.
